For orientation: chromatographic logD means lipophilicity estimated from chromatographic retention. High values mean a more lipophilic compound, low ones a more hydrophilic compound.

Molecules are shown by their SMILES.

A short description of this data set: CHI Log D procedure. Type of data set: physicochemical.

Under “pH 7.4, CHI Log D”, `CC(=O)N[C@@H](Cc1ccccc1)C(=O)N[C@@H](CC(=O)O)C(=O)N[C@@H](C)C(=O)N[C@]1(C)CCCCCCC=CCOC(=O)N2CC[C@@](C(=O)N[C@@H](Cc3ccc(C(N)=O)cc3)C(=O)N[C@@H](Cc3c[nH]c4ccccc34)C(=O)N[C@@H](CCC(N)=O)C(N)=O)(C2)NC(=O)[C@H](C(C)C)NC(=O)[C@H](Cc2ccccc2)NC(=O)[C@H](C)NC(=O)[C@H](C)NC(=O)[C@H](CC(=O)O)NC(=O)[C@H](CC(=O)O)NC1=O` (single isomer, unassigned) [I-90, Ac-Phe-Asp-Ala-R8-Asp-Asp-Ala-Ala-Phe-Val-PyrS-4CBMF-Trp-Gln-NH2] came in with a chromatographic logD of 0.958. Take `CC(=O)N[C@@H](Cc1ccccc1)C(=O)N[C@@H](CC(=O)O)C(=O)N[C@@H](C)C(=O)N[C@]1(C)CCCCCCC=CCOC(=O)N2CC[C@@](C(=O)N[C@@H](CC3CCCC3)C(=O)N[C@@H](Cc3c[nH]c4ccccc34)C(=O)N[C@@H](CCC(N)=O)C(N)=O)(C2)NC(=O)[C@H](C(C)C)NC(=O)[C@H](Cc2ccccc2)NC(=O)[C@H](C)NC(=O)[C@H](C)NC(=O)[C@H](CC(=O)O)NC(=O)[C@H](CC(=O)O)NC1=O` (single isomer, unassigned) [I-93, Ac-Phe-Asp-Ala-R8-Asp-Asp-Ala-Ala-Phe-Val-PyrS-CypA-Trp-Gln-NH2]: the chromatographic logD (pH 7.4, CHI Log D) stood at 1.32. As for `CC(=O)N[C@@H](Cc1ccccc1)C(=O)N[C@@H](CC(=O)O)C(=O)N[C@@H](C)C(=O)N[C@]1(C)CCCCCCC=CCOC(=O)N2CC[C@@](C(=O)N[C@@H](Cc3ccccc3)C(=O)N[C@@H](Cc3c[nH]c4ccccc34)C(=O)N[C@@H](CCC(N)=O)C(N)=O)(C2)NC(=O)[C@H](C(C)C)NC(=O)[C@H](CC2CCCC2)NC(=O)[C@H](C)NC(=O)[C@H](C)NC(=O)[C@H](CC(=O)O)NC(=O)[C@H](CC(=O)O)NC1=O` (single isomer, unassigned) [I-96, Ac-Phe-Asp-Ala-R8-Asp-Asp-Ala-Ala-CypA-Val-PyrS-Phe-Trp-Gln-NH2], the “CHI Log D” value (pH 7.4) came to 1.343. As for `CC(=O)N[C@@H](Cc1ccccc1)C(=O)N[C@@H](CC(=O)O)C(=O)N[C@@H](C)C(=O)N[C@]1(C)CCCCCCC=CCOC(=O)N2CC[C@@](C(=O)N[C@@H](Cc3ccccc3)C(=O)N[C@@H](Cc3c[nH]c4ccccc34)C(=O)N[C@@H](CCC(N)=O)C(N)=O)(C2)NC(=O)[C@H](C(C)C)NC(=O)[C@H](Cc2ccccc2)NC(=O)[C@H](C)NC(=O)[C@H](C)NC(=O)[C@H](CCc2ccccc2)NC(=O)[C@H](CC(=O)O)NC1=O` (single isomer, unassigned) [I-98, Ac-Phe-Asp-Ala-R8-Asp-hPhe-Ala-Ala-Phe-Val-PyrS-Phe-Trp-Gln-NH2], the chromatographic logD (pH 7.4) was found to be 2.08.

On to `CC(=O)N[C@@H](Cc1ccccc1)C(=O)N[C@@H](CC(=O)O)C(=O)N[C@@H](C)C(=O)N[C@]1(C)CCCCCCC=CCOC(=O)N2CC[C@@](C(=O)N[C@@H](Cc3ccccc3)C(=O)N[C@@H](Cc3c[nH]c4ccccc34)C(=O)N[C@@H](CCC(N)=O)C(N)=O)(C2)NC(=O)[C@H](C(C)C)NC(=O)[C@H](Cc2ccccc2)NC(=O)[C@H](C)NC(=O)[C@H](C)NC(=O)[C@H](Cc2ccccc2)NC(=O)[C@H](CC(=O)O)NC1=O` (single isomer, unassigned) [I-99, Ac-Phe-Asp-Ala-R8-Asp-Phe-Ala-Ala-Phe-Val-PyrS-Phe-Trp-Gln-NH2], for which the chromatographic logD (pH 7.4) was determined as 1.99. Compound `COc1cccc(C[C@H](NC(=O)[C@]23CCN(C2)C(=O)OCC=CCCCCCC[C@@](C)(NC(=O)[C@H](C)NC(=O)[C@H](CC(=O)O)NC(=O)[C@H](Cc2ccccc2)NC(C)=O)C(=O)N[C@@H](CC(=O)O)C(=O)N[C@@H](CC(=O)O)C(=O)N[C@@H](C)C(=O)N[C@@H](C)C(=O)N[C@@H](Cc2ccccc2)C(=O)N[C@@H](C(C)C)C(=O)N3)C(=O)N[C@@H](Cc2c[nH]c3ccccc23)C(=O)N[C@@H](CCC(N)=O)C(N)=O)c1` (single isomer, unassigned) [I-101, Ac-Phe-Asp-Ala-R8-Asp-Asp-Ala-Ala-Phe-Val-PyrS-3OMeF-Trp-Gln-NH2] gave a chromatographic logD (pH 7.4, CHI Log D) of 1.33. Consider `COc1cccc(C[C@H](NC(=O)[C@]23CCN(C2)C(=O)OCC=CCCCCCC[C@@](C)(NC(=O)[C@H](C)NC(=O)[C@H](CC(=O)O)NC(=O)[C@H](Cc2ccccc2)NC(C)=O)C(=O)N[C@@H](CC(=O)O)C(=O)N[C@@H](CC(=O)O)C(=O)N[C@@H](C)C(=O)N[C@@H](C)C(=O)N[C@@H](Cc2ccccc2)C(=O)N[C@@H](C(C)C)C(=O)N3)C(=O)N[C@@H](Cc2c[nH]c3ccccc23)C(=O)N[C@@H](CCC(N)=O)C(N)=O)c1` (single isomer, unassigned) [I-102, Ac-Phe-Asp-Ala-R8-Asp-Asp-Ala-Ala-Phe-Val-PyrS-3OMeF-Trp-Gln-NH2], for which the “CHI Log D” value (pH 7.4) was found to be 1.274. `CC(=O)N[C@@H](Cc1ccccc1)C(=O)N[C@@H](CC(=O)O)C(=O)N[C@@H](C)C(=O)N[C@]1(C)CCCCCCC=CCOC(=O)N2CC[C@@](C(=O)N[C@@H](Cc3ccccc3C(N)=O)C(=O)N[C@@H](Cc3c[nH]c4ccccc34)C(=O)N[C@@H](CCC(N)=O)C(N)=O)(C2)NC(=O)[C@H](C(C)C)NC(=O)[C@H](Cc2ccccc2)NC(=O)[C@H](C)NC(=O)[C@H](C)NC(=O)[C@H](CC(=O)O)NC(=O)[C@H](CC(=O)O)NC1=O` (single isomer, unassigned) [I-105, Ac-Phe-Asp-Ala-R8-Asp-Asp-Ala-Ala-Phe-Val-PyrS-2CBMF-Trp-Gln-NH2] gave a chromatographic logD (pH 7.4, CHI Log D) of 1.03. As for `CC(=O)N[C@@H](Cc1ccccc1)C(=O)N[C@@H](CC(=O)O)C(=O)N[C@@H](C)C(=O)N[C@]1(C)CCCCCCC=CCOC(=O)N2CC[C@@](C(=O)N[C@@H](Cc3ccccc3C(N)=O)C(=O)N[C@@H](Cc3c[nH]c4ccccc34)C(=O)N[C@@H](CCC(N)=O)C(N)=O)(C2)NC(=O)[C@H](C(C)C)NC(=O)[C@H](Cc2ccccc2)NC(=O)[C@H](C)NC(=O)[C@H](C)NC(=O)[C@H](CC(=O)O)NC(=O)[C@H](CC(=O)O)NC1=O` (single isomer, unassigned) [I-106, Ac-Phe-Asp-Ala-R8-Asp-Asp-Ala-Ala-Phe-Val-PyrS-2CBMF-Trp-Gln-NH2], the “CHI Log D” value (pH 7.4) amounted to 1.038. As to `CC(=O)N[C@@H](Cc1ccccc1)C(=O)N[C@@H](CC(=O)O)C(=O)N[C@@H](C)C(=O)N[C@]1(C)CCCCCCC=CCOC(=O)N2CC[C@@](C(=O)N[C@@H](Cc3ccccc3)C(=O)N[C@@H](Cc3c[nH]c4ccccc34)C(=O)N[C@@H](CCC(N)=O)C(N)=O)(C2)NC(=O)[C@H](C(C)C)NC(=O)[C@H](Cc2cccc(C(N)=O)c2)NC(=O)[C@H](C)NC(=O)[C@H](C)NC(=O)[C@H](CC(=O)O)NC(=O)[C@H](CC(=O)O)NC1=O` (single isomer, unassigned) [I-108, Ac-Phe-Asp-Ala-R8-Asp-Asp-Ala-Ala-3CBMF-Val-PyrS-Phe-Trp-Gln-NH2], for the setting “pH 7.4, CHI Log D”, the chromatographic logD came to 1.15. Under “pH 7.4, CHI Log D”, `CC(=O)N[C@@H](Cc1ccccc1)C(=O)N[C@@H](CC(=O)O)C(=O)N[C@@H](C)C(=O)N[C@]1(C)CCCCCCC=CCOC(=O)N2CC[C@@](C(=O)N[C@@H](Cc3ccccc3)C(=O)N[C@@H](Cc3c[nH]c4ccccc34)C(=O)N[C@@H](CCC(N)=O)C(N)=O)(C2)NC(=O)[C@H](C(C)C)NC(=O)[C@H](Cc2ccc3ccccc3c2)NC(=O)[C@H](C)NC(=O)[C@H](C)NC(=O)[C@H](CC(=O)O)NC(=O)[C@H](CC(=O)O)NC1=O` (single isomer, unassigned) [I-112, Ac-Phe-Asp-Ala-R8-Asp-Asp-Ala-Ala-2NapA-Val-PyrS-Phe-Trp-Gln-NH2] came in with a chromatographic logD of 1.4.

On to `CC(=O)N[C@@H](Cc1ccccc1)C(=O)N[C@@H](CC(=O)O)C(=O)N[C@@H](C)C(=O)N[C@]1(C)CCCCCCC=CCOC(=O)N2CC[C@@](C(=O)N[C@@H](Cc3ccccc3)C(=O)N[C@@H](Cc3c[nH]c4ccccc34)C(=O)N[C@@H](CCC(N)=O)C(N)=O)(C2)NC(=O)[C@H](C(C)C)NC(=O)[C@H](CCc2ccccc2)NC(=O)[C@H](C)NC(=O)[C@H](C)NC(=O)[C@H](CC(=O)O)NC(=O)[C@H](CC(=O)O)NC1=O` (single isomer, unassigned) [I-117, Ac-Phe-Asp-Ala-R8-Asp-Asp-Ala-Ala-hPhe-Val-PyrS-Phe-Trp-Gln-NH2], for which, for the setting “pH 7.4, CHI Log D”, the chromatographic logD stood at 1.33. With `CC(=O)N[C@@H](Cc1ccccc1)C(=O)N[C@@H](CC(=O)O)C(=O)N[C@@H](C)C(=O)N[C@]1(C)CCCCCCC=CCOC(=O)N2CC[C@@](C(=O)N[C@@H](CC(=O)O)C(=O)N[C@@H](Cc3c[nH]c4ccccc34)C(=O)N[C@@H](CCC(N)=O)C(N)=O)(C2)NC(=O)[C@H](C(C)C)NC(=O)[C@H](Cc2ccccc2)NC(=O)[C@H](C)NC(=O)[C@H](C)NC(=O)[C@H](CC(=O)O)NC(=O)[C@H](CC(=O)O)NC1=O` (single isomer, unassigned) [I-122, Ac-Phe-Asp-Ala-R8-Asp-Asp-Ala-Ala-Phe-Val-PyrS-Asp-Trp-Gln-NH2], under “pH 7.4, CHI Log D”, the chromatographic logD stood at 0.84. On the same count and under the same terms, the figure for `CCCC[C@@H]1NC(=O)[C@H](CC(=O)O)NC(=O)C2(CCCC=CCCCCCC[C@@](C)(C(=O)N[C@@H](Cc3ccccc3)C(=O)N[C@@H](Cc3c[nH]c4ccccc34)C(=O)N[C@@H](CCC(N)=O)C(N)=O)NC(=O)[C@H](C(C)C)NC(=O)[C@H](Cc3ccccc3)NC(=O)[C@H](C)NC(=O)[C@H](C)NC1=O)CCCC=CC[C@]1(CCCN1C(C)=O)C(=O)N[C@@H](CC(=O)O)C(=O)N[C@@H](C)C(=O)N2` (single isomer, unassigned) [I-138, Ac-PL3-Asp-Ala-B5-Asp-nLeu-Ala-Ala-Phe-Val-S8-Phe-Trp-Gln-NH2] is 1.81. For the compound `CCCC[C@@H]1NC(=O)[C@H](CC(=O)O)NC(=O)C2(CCCC=CCCCCCC[C@@](C)(C(=O)N[C@@H](Cc3ccccc3)C(=O)N[C@@H](Cc3c[nH]c4ccccc34)C(=O)N[C@@H](CCC(N)=O)C(N)=O)NC(=O)[C@H](C(C)C)NC(=O)[C@H](Cc3ccccc3)NC(=O)[C@H](C)NC(=O)[C@H](C)NC1=O)CCCC=CC[C@]1(CCCN1C(C)=O)C(=O)N[C@@H](CC(=O)O)C(=O)N[C@@H](C)C(=O)N2` (single isomer, unassigned) [I-139, Ac-PL3-Asp-Ala-B5-Asp-nLeu-Ala-Ala-Phe-Val-S8-Phe-Trp-Gln-NH2], the “CHI Log D” value (pH 7.4) came to 2.834.

The record behind these values is patent publication US20240116985A1, “STAPLED PEPTIDES AND METHODS THEREOF” (priority 2020, published 2024).
